Measured values as given in patent publication US9351955B2, “Compounds and pharmaceutical compositions thereof for the treatment of cystic fibrosis” (Galapagos NV, priority 2013, dated 2016).

Tests used:
CFTR-R117H = biological target: T1, CFTR-R117H (Homo sapiens, UniProt P13569, R117H); assay: YFP-halide influx assay for the CFTR-R117H; assay type: cell-based; settings: CFTR-R117H mutant; read-out: EC50 measured by YFP-halide influx assay for the CFTR-R117H
T1 construct: expressed in transfected cells
Method in brief: (§1)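 HEK293 cells reverse-transfected with mutant CFTR and halide-sensitive YFP H148Q/I152L/F47L reporter, then expressed 24 h at 37 °C, 5% CO2. Fluorescence quenching recorded for 7 s after I^− injection; response expressed as 1−F/F0, with EC50 derived from response versus compound concentration.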

CYP3A4 = biological target: T2, CYP3A4 (Homo sapiens, UniProt P08684); assay: Time dependent inhibition (TDI) of CYP3A4 in human liver microsomes; assay type: in vitro ADME
T2 construct: tissue BD Gentest; host or cells: human liver microsomes
Experimental: 8.7.11. Time Dependent Inhibition (TDI) 8.7.11.1. Protocol
The mechanism-based inhibition assay for CYP3A4 is carried out to evaluate the presence of any TDI.
A 5 mM stock solution of test compound is prepared in methanol. This stock is serially diluted 1:3 in methanol and then added in duplicates to mixture containing 50 mM potassium phosphate buffer pH 7.4 and human liver microsomes (BD Gentest). Final reaction conditions are as follows: seven test compound concentrations (0.14-100 μM), prepared in duplicates and 2% methanol.
A summary of the specific conditions is shown below.
After finishing the pre-incubation, the reaction is finally started by adding the co-factor mix to the first replica and probe substrate to second replica (opposite from pre-incubation).
After incubation at 37° C., the reaction (aliquot of 50 μL) is terminated with 150 μL acetonitrile:methanol (2:1) solution with internal standard (warfarin). Samples are centrifuged and the supernatant fractions analyzed by LC-MS/MS.
The instrument responses (ratio of test compound and internal standard peak areas) are referenced to those for solvent controls (assumed as 100%) in order to determine the percentage reduction in probe metabolism. […]

CFTR-G178R = biological target: T3, CFTR-G178R (Homo sapiens, UniProt P13569, G178R); assay: YFP-halide influx assay for the CFTR-G178R; assay type: cell-based; settings: read-out: EC50 measured by YFP-halide influx assay for the CFTR-G178R
T3 construct: expressed in transfected cells
Method in brief: as §1

Lung distribution study = assay type: in vivo, Sprague-Dawley rats; settings: male, Sprague-Dawley, rat, plasma, oral, 10 mg/kg, exposure values
Experimental: Sprague-Dawley rats (male, 5-6 weeks old) are obtained from Janvier (France). Rats are acclimatized for at least 5 days before treatment and are kept on a 12 h light/dark cycle. Temperature is maintained at approximately 22° C., and food and water are provided ad libitum. Two days before administration of the test compounds, rats may undergo surgery to place a catheter in the jugular vein under isoflurane anesthesia. After the surgery, rats are housed individually. Rats are deprived of food for at least 16 h before oral dosing and 6 h after. Water is provided ad libitum.
8.7.3. Lung Distribution Studies
Compounds are formulated in 0.5% methylcellulose and EtOH/PEG 200/Methylcellulose 0.5% (10/25/65 v/v/v) by the oral route. Test compounds are orally dosed as a single esophageal gavage at 10 mg/kg under a dosing volume of 5 mL/kg. Each group consists of 12 rats. At each time point, typically 1, 3, 6 and 24 h, animals are euthanized and blood and lung samples are collected. Whole blood samples are centrifuged at 1500 g for 10 min and the resulting plasma samples, along with the lung samples, are stored at −20° C. pending analysis.
8.7.4. Quantification of Compound Levels in Plasma and Lung Samples
Lung samples are milled in the presence of ceramic beads and proteins present in plasma and lung samples are precipitated with an organic solvent. Concentrations of each test compound are determined by an LC-MS/MS method in which the mass spectrometer is operated in positive or negative electrospray mode.
For each animal, the lung-to-plasma ratio is determined as the ratio between compound concentration in lung and in plasma. At each sampling time point, mean, standard error of the mean (sem) and coefficient of variation (CV %) are calculated using data from three animals.

T3 sequence (P13569 whole entry G178R): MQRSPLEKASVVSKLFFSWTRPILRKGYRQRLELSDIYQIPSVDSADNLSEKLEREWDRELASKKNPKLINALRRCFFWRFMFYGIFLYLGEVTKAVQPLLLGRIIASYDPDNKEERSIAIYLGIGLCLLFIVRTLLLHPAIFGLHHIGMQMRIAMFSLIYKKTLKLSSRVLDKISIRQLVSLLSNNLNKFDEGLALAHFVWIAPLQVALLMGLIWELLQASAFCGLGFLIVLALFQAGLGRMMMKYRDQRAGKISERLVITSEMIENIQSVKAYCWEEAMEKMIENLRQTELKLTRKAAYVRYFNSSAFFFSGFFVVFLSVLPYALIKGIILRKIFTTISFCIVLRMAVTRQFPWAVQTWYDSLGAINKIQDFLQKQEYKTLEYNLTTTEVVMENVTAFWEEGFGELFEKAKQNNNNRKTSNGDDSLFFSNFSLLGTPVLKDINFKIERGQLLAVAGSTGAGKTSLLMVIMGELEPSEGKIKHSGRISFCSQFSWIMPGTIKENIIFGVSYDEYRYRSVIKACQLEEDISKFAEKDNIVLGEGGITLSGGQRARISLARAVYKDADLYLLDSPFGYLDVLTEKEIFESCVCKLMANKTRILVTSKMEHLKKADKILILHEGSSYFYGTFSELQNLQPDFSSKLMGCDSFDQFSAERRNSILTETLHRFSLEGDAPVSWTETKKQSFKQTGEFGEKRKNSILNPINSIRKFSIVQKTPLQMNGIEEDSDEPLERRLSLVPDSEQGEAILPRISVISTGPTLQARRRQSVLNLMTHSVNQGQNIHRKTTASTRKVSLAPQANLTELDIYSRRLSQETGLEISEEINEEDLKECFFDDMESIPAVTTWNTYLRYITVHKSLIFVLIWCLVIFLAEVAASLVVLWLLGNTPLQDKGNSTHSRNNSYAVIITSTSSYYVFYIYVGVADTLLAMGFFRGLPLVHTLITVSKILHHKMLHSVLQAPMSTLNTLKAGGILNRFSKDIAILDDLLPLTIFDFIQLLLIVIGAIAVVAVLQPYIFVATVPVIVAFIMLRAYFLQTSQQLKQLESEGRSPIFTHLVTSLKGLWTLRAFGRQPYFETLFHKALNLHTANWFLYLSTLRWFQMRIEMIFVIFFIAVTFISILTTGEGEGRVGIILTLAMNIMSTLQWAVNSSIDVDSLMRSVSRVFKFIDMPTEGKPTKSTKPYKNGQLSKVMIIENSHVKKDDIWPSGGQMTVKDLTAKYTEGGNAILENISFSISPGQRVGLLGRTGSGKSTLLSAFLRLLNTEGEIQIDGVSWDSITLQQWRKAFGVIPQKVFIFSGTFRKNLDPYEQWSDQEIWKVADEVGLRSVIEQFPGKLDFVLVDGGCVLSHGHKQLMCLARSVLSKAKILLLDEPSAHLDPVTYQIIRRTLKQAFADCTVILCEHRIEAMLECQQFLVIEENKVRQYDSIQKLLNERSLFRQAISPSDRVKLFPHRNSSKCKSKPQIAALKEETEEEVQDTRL
T1 sequence (P13569 whole entry R117H): as the sequence (P13569 whole entry G178R) above, with R117H, R178G counted along it
T2 sequence (P08684 whole entry): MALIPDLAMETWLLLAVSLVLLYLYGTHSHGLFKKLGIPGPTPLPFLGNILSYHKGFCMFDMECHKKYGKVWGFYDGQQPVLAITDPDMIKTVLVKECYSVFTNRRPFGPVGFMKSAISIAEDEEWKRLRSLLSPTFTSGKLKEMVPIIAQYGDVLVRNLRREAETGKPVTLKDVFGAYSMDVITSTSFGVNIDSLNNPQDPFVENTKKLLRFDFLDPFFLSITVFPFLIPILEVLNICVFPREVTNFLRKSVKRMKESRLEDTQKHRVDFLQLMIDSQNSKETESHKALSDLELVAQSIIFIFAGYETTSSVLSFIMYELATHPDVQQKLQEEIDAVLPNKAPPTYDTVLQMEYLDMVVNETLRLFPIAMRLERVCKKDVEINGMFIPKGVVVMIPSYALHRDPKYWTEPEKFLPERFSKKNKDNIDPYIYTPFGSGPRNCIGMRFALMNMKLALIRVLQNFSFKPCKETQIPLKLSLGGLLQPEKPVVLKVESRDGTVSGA

| Compound | EC50 (CFTR-R117H) [nM] | time-dependent inhibition of CYP3A4 (CYP3A4; IC50 without vs with preincubation) | IC50 (CYP3A4; both without and with preincubation, Midazolam or testosterone as probe substrate, human liver microsomes) [nM] | EC50 (CFTR-G178R) [nM] | AUC(0-t) (Lung distribution study) [ng·h/mL] |
| --- | --- | --- | --- | --- | --- |
| CC1(C)Cc2c(sc(NC(=O)c3ccn[nH]3)c2C(N)=O)C(C)(C)O1 [Compound 2, N-(3-carbamoyl-5,5,7,7-tetramethyl-5,7-dihydro-4H-thieno[2,3-c]pyran-2-yl)-1H-pyrazole-5-carboxamide] | 166 | no evidence for time-dependent inhibition of CYP3A4 | > 100000 | 56.9 | – |
| CC1(C)Cc2c(sc(NC(=O)C3(CO)CC3)c2C(N)=O)C(C)(C)O1 [Compound 9, 2-(1-(hydroxymethyl)cyclopropanecarboxamido)-5,5,7,7-tetramethyl-5,7-dihydro-4H-thieno[2,3-c]pyran-3-carboxamide] | 433 | – | – | 699 | 38900 |
